Experimental data reported in publication PMC7236970 (Clinical Epigenetics, 2020).

Experiments:
K-562 cells [1] = assay: Cell proliferation and viability, Trypan Blue exclusion; type: cell-based, human; settings: for concentration from which cell death was triggered / cell viability decreased / concentration from which cell proliferation was reduced: K-562, 48 h
Method: (§4) Cell viability and proliferation were evaluated using the Trypan Blue exclusion method (BioWhittaker ®). Cells were processed using a semi-automated image-based cell analyzer (Cedex XS Innovatis, Roche, Luxembourg, Luxembourg), which provided the cell number as well as cell viability based on the fraction of trypan blue-positive cells.

total HDAC = assay: In vitro HDAC activity assay, total HDAC; type: biochemical; settings: for IC50: read-out: IC50 values against total HDAC activity; for total HDAC activity remaining: 2 μM SAHA or 0.1 μM MAKV-8
Method: (§1) In vitro HDAC activities were measured as previously described. IC50 values against the various HDAC activities were determined using nonlinear regression in Prism 8.0 software (GraphPad Software, Inc., La Jolla, CA, USA).

Acetyl histone H4 = assay: Western blot of histone H4 acetylation in K-562 cells; type: cell-based, human; settings: for effect on histone H4 acetylation (in words): increasing concentrations
Method: (§2) Cells were lyzed in 10% (v/v) Mammalian Protein Extraction Reagent solution (MPER®; Thermofisher, Erembodegen, Belgium) supplemented with 1× protease inhibitor cocktail (Complete EDTA-free, Roche) according to the manufacturer’s instructions. Histone enrichment was performed in acidic conditions as previously described. The protein concentration was determined using the Bradford assay (BioRad).

Acetyl α-tubulin = assay: Western blot of α-tubulin acetylation in K-562 cells; type: cell-based, human; settings: for effect on α-tubulin acetylation (in words): increasing concentrations
Method: as §2

[2] = system: K-562 cells xenografted in zebrafish; assay: Zebrafish cancer cell xenograft; type: in vivo; settings: K-562 cells treated 24 h, injected into zebrafish yolk sac, three days post-injection
Method: Cancer xenograft assays in zebrafish were performed as previously described using cells stained with 2 μM CM-Dil (Invitrogen) and diluted in 1× PBS supplemented with 1% phenol red sodium salt solution.

recombinant HDAC6 = target: T1, recombinant HDAC6 (Homo sapiens, UniProt Q9UBN7); assay: In vitro HDAC activity assay, recombinant HDAC6; type: biochemical; settings: read-out: IC50 recombinant HDAC6 deacetylase activity
T1 sequence (Q9UBN7 1-1215): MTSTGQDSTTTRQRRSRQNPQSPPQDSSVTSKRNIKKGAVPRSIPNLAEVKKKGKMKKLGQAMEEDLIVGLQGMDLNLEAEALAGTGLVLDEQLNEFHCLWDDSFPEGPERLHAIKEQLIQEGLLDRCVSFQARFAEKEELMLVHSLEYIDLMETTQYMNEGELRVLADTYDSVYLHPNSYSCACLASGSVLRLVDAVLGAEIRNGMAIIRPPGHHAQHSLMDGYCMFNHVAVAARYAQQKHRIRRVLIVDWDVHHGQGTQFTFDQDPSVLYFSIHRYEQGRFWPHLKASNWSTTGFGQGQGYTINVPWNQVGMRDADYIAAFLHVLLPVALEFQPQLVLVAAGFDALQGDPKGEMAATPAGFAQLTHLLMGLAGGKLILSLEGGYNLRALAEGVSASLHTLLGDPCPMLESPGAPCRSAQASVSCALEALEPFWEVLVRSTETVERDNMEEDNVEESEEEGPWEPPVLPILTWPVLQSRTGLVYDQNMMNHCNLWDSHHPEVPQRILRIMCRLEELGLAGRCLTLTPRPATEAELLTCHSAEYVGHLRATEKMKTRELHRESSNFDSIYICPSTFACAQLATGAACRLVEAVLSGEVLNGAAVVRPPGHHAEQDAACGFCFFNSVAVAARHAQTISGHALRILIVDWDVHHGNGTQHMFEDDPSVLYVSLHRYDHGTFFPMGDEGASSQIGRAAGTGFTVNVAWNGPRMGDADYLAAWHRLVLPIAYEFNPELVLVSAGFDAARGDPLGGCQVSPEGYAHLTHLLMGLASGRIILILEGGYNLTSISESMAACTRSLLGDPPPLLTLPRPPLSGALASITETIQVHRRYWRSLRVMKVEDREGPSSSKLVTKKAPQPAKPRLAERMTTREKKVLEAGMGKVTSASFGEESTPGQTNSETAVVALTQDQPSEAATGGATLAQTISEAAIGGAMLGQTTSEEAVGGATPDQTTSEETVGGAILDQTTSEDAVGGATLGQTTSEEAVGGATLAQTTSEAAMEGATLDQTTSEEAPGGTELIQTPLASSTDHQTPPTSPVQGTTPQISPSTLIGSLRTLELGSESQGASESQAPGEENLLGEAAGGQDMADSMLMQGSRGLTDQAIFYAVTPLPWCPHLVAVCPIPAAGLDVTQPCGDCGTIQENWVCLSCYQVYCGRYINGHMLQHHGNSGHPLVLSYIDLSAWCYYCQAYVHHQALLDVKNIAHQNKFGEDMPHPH
Method: as §1

HDAC3 = system: HDAC3; design: method as in PMID 18642892; settings: in vitro; read-out: IC50 towards HDAC3; cited from earlier work
PBMCs [3] = assay: Healthy cell viability, Trypan Blue exclusion; settings: 48 h
Method: (§5) PBMCs were isolated from the blood of healthy adult human donors obtained from the Red Cross (Luxembourg, Luxembourg) and purified as previously reported [43].
as §4

KBM-5 cells [4] = assay: Cell proliferation and viability, Trypan Blue exclusion; type: cell-based, human
Method: as §4

MEG-01 cells [5] = assay: as above; type: cell-based, human
Method: as §4

KBM-5 cells [6] = assay: Colony formation assay in methylcellulose; type: cell-based, human; settings: KBM-5, 10 days
Method: (§3) For colony formation assays, 1000 cells were grown in 1 mL of semi-solid methylcellulose medium (Methocult H4230, StemCell Technologies Inc., Grenoble, France) supplemented with 10% heat-inactivated FCS (BioWhittaker ®) in 12-well plates. Colonies were detected after 10 days of culturing by adding 5 mg/mL 3-(4,5-dimethylthiazol-2-yl)-2,5-diphenyltetrazoliumbromide (MTT) reagent (Sigma-Aldrich) and incubating for 15 min at 37 °C. Pictures were taken with the GelDoc XR+ System (BioRad, Temse, Belgium), and quantifications were conducted using Image J software (US National Institute of Health, Bethesda, MD, USA).

K-562 cells [7] = assay: Colony formation assay in methylcellulose; type: cell-based, human; settings: K-562, 10 days
Method: as §3

MEG-01 cells [8] = assay: Colony formation assay in methylcellulose; type: cell-based, human; settings: MEG-01, 10 days
Method: as §3

recombinant HDAC1 = recombinant HDAC1 (Homo sapiens, UniProt Q13547); assay: In vitro HDAC activity assay, recombinant HDAC1; type: biochemical; settings: read-out: IC50 recombinant HDAC1 deacetylase activity
Chain of recombinant HDAC1 (Q13547 whole entry): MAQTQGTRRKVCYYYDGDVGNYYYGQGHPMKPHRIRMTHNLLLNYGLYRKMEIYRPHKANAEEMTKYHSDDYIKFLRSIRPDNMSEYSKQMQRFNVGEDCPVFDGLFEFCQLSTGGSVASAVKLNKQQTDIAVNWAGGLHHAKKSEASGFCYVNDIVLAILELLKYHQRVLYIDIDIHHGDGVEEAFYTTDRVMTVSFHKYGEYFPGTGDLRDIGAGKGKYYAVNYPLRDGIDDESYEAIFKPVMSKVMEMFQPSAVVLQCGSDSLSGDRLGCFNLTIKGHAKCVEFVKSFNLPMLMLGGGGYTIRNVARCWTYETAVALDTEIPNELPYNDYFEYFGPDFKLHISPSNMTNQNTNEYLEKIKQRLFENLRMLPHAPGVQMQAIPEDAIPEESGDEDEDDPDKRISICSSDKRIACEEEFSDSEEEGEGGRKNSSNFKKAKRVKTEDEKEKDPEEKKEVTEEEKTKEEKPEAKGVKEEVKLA
Method: as §1

HDAC6 = system: HDAC6; design: method as in PMID 18642892; settings: in vitro; read-out: IC50 towards HDAC6; cited from earlier work
platelets = assay: Platelet viability, flow cytometry after Annexin V staining; type: cell-based, human; settings: 48 h
Method: Phosphatidylserine exposure was evaluated using the FITC Annexin V Apoptosis Detection Kit I (BD Biosciences) according to the supplier’s instructions. Stained samples were processed through a cytometer (FACS Calibur, BD Biosciences), and data were recorded statistically (10,000 events/sample) using the CellQuest Pro software (BD, Biosciences). Data were analyzed using the Flow-Jo 8.8.5 software.

RPMI-1788 cells = assay: Healthy cell model viability, nuclear morphology; type: cell-based, human; settings: RPMI-1788, 48 h, 10 μM MAKV-8
From the text: PBMCs were isolated from the blood of healthy adult human donors obtained from the Red Cross (Luxembourg, Luxembourg) and purified as previously reported [43]. […] Platelets from healthy adult human donors were provided by the Red Cross.

K-562 cells [9] = assay: Cellular ALDH activity (ALDEFLUOR), ALDH+ LSC fraction; type: cell-based, human; settings: K-562, 24 h; for ALDH+ cell percentage: untreated cells 50%
Method: Cellular ALDH activity was assessed using the ALDEFLUOR^TM kit (StemCell Technologies Inc.) according to the manufacturer’s procedure. Diethylaminobenzaldehyde, a specific inhibitor of ALDH activity, was used to differentiate cells with low or high ALDH activity.

K-562 cells [10] = assay: Cyto-ID quantification of autophagic vesicles; type: cell-based, human; settings: K-562, 8 h, Cyto-ID staining
Method: For fluorescence microscopy, the Cyto-ID® Autophagy Detection Kit (Enzo Life Science) was used according to the manufacturer’s instructions. […] Green fluorescent autophagy-related organelles (pre-autophagosomes, autophagosomes, and autophagolysosomes) were quantified as green signal area per cell nucleus as advised by the manufacturer. Segmentation of these areas was based on 31 parameters assessing color, texture, and edge and was carried out in Ilastik, version 1.3.0 developed by the European Molecular Biology Laboratory, Heidelberg. Classifiers trained for these parameters on a set of representative images were then applied to batch process multiple images as described in Ilastik’s user manual. Binary masks thus obtained were measured in FIJI [59] after applying a size filter to remove small size artifacts resulting from segmentation.

PBMCs [11] = system: PBMCs
Method: as §5, §4

## CC(C)(C)OC(=O)Nc1cccc(-c2cc(C(=O)NO)no2)c1 [MAKV-6]
K-562 cells [1]
  concentration from which cell death was triggered / cell viability decreased: ≥ 25 µM
  concentration from which cell proliferation was reduced: ≥ 5 µM
Total HDAC; in vitro
  IC50 values against total HDAC activities (in words): low micromolar range
  IC50: 1050 ± 220 nM
Acetyl histone H4; 24 h
  effect on histone H4 acetylation (in words): increased histone H4 acetylation only at the highest concentrations
Acetyl α-tubulin; 24 h
  effect on α-tubulin acetylation (in words): failed to increase α-tubulin acetylation

## CC(C)(C)OC(=O)Nc1ccc(-c2cc(C(=O)NO)no2)cc1 [MAKV-7]
K-562 cells [1]
  concentration from which cell death was triggered / cell viability decreased: ≥ 25 µM
  concentration from which cell proliferation was reduced: ≥ 10 µM
Total HDAC; in vitro
  IC50 values against total HDAC activities (in words): low micromolar range
  IC50: 22000 nM
Acetyl histone H4; 24 h
  effect on histone H4 acetylation (in words): increased histone H4 acetylation only at the highest concentrations
Acetyl α-tubulin; 24 h
  effect on α-tubulin acetylation (in words): failed to increase α-tubulin acetylation

## CC(C)(C)OC(=O)Nc1cccc(-c2cc(C(=O)NCCCCCCC(=O)NO)no2)c1 [MAKV-8]
[2]
  tumor formation / tumor volume (in words): unable to significantly reduce tumor volumes
Recombinant HDAC6
  IC50: 11.4 nM
HDAC3
  IC50: 0.002 nM
K-562 cells [1]
  concentration from which cell death was triggered / cell viability decreased: ≥ 10 µM
K-562 cells [1]; K-562, up to 72 h
  concentration from which cell growth was inhibited: about 3 μM
PBMCs [3]
  maximum decrease of viable cells: ≤ 30%
Total HDAC
  total HDAC activity remaining: about 10%
Total HDAC; in vitro
  potency as pan-HDACi relative to SAHA: 10 times
  IC50: 5.8 ± 3.8 nM
KBM-5 cells [4]; KBM-5, 48 h
  concentration from which cell death was triggered: ≥ 10 µM
KBM-5 cells [4]; KBM-5, up to 72 h
  concentration from which cell growth was inhibited: about 3 μM
Acetyl histone H4; 15 µM MAKV-8
  time at which increase in histone H4 acetylation begins: ≥ 2 h
Acetyl histone H4; 24 h
  concentration from which histone H4 acetylation was induced: ≥ 1 µM
Acetyl histone H4; Homo sapiens, K562, 24 h, western blot quantification, read-out: EC50 half-maximal acetylation of histone H4
  EC50: 5900 ± 1400 nM
MEG-01 cells [5]; MEG-01, 48 h
  concentration from which cell death was triggered: ≥ 10 µM
MEG-01 cells [5]; MEG-01, up to 72 h
  concentration from which cell growth was inhibited: about 3 μM
KBM-5 cells [6]
  concentration from which colony formation (replicative ability, 3D model) was strongly reduced: ≥ 10 µM
K-562 cells [7]
  concentration from which colony formation (replicative ability, 3D model) was strongly reduced: ≥ 5 µM
MEG-01 cells [8]
  concentration from which colony formation (replicative ability, 3D model) was strongly reduced: ≥ 5 µM
Recombinant HDAC1
  IC50: 2.6 nM
HDAC6
  IC50: 0.002 nM
platelets
  cytotoxicity in platelets (in words): neither alone nor in co-treatments elicited any significant cytotoxicity in platelets
RPMI-1788 cells
  reduction of living cells: about 55%
K-562 cells [9]
  ALDH+ cell percentage: 24%
K-562 cells [10]
  autophagic signal area per nucleus compared to controls: about 1.5 times
Acetyl α-tubulin; 15 µM MAKV-8
  time at which increase in α-tubulin acetylation begins: ≥ 2 h
Acetyl α-tubulin; 24 h
  concentration from which α-tubulin acetylation was induced: ≥ 5 µM
Acetyl α-tubulin; Homo sapiens, K562, 24 h, western blot quantification, read-out: EC50 half-maximal acetylation of α-tubulin
  EC50: 12100 ± 900 nM

## COC(=O)CCCCCCNC(=O)c1cc(-c2cccc(NC(=O)OC(C)(C)C)c2)on1 [MAKV-10]
K-562 cells [1]; K-562, up to 72 h
  effect on cell proliferation and viability (in words): neither MAKV-10 nor MAKV-12 impacted K-562 cell proliferation and viability
Total HDAC; in vitro
  concentration up to which HDAC activities were not inhibited: > 100 µM
  IC50: > 100000 nM
Acetyl histone H4; 24 h
  effect on histone H4 acetylation (in words): did not augment protein target acetylation levels
Acetyl α-tubulin; 24 h
  effect on α-tubulin acetylation (in words): did not augment protein target acetylation levels

## COC(=O)CCCCCCNC(=O)c1cc(-c2cccc(N)c2)on1 [MAKV-12]
K-562 cells [1]; K-562, up to 72 h
  effect on cell proliferation and viability (in words): neither MAKV-10 nor MAKV-12 impacted K-562 cell proliferation and viability
Total HDAC; in vitro
  concentration up to which HDAC activities were not inhibited: > 100 µM
  IC50: > 100000 nM
Acetyl histone H4; 24 h
  effect on histone H4 acetylation (in words): did not augment protein target acetylation levels
Acetyl α-tubulin; 24 h
  effect on α-tubulin acetylation (in words): did not augment protein target acetylation levels

## O=C(CCCCCCC(=O)Nc1ccccc1)NO [SAHA, suberoylanilide hydroxamic acid, reference compound]
Total HDAC
  total HDAC activity remaining: about 10%
K-562 cells [9]
  effect on ALDH+ cell proportion (in words): failed to reduce the ALDH^+ cell proportion

## Cc1ccc(NC(=O)c2ccc(CN3CCN(C)CC3)cc2)cc1Nc1nccc(-c2cccnc2)n1 [imatinib]
PBMCs [11]
  cell mortality (in words): failed to trigger any cell mortality
K-562 cells [9]
  ALDH+ cell percentage: 30%
